Data published in PubChem BioAssay (NCI).
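Five concentrations, 48 hours, 96-well plates. TGI: total growth inhibition.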

Key:
Assay in all cases: DTP human tumour cell line panel, 48 h
[1] = tested on: 786-0 renal
[2] = tested on: A498 renal
[3] = tested on: A549 NSCLC
[4] = tested on: ACHN renal
[5] = tested on: CAKI-1 renal
[6] = tested on: CCRF-CEM leukemia
[7] = tested on: COLO 205 colon
[8] = tested on: DU-145 prostate
[9] = tested on: EKVX NSCLC
[10] = tested on: HCC-2998 colon
[11] = tested on: HCT-116 colon
[12] = tested on: HCT-15 colon
[13] = tested on: HL-60(TB) leukemia
[14] = tested on: HOP-62 NSCLC
[15] = tested on: HOP-92 NSCLC
[16] = tested on: HS 578T breast
[17] = tested on: HT29 colon
[18] = tested on: IGROV1 ovarian
[19] = tested on: K-562 leukemia
[20] = tested on: KM12 colon
[21] = tested on: LOX IMVI melanoma
[22] = tested on: M14 melanoma
[23] = tested on: MALME-3M melanoma
[24] = tested on: MCF7 breast
[25] = tested on: MDA-MB-231 breast
[26] = tested on: MDA-MB-435
[27] = tested on: MDA-N
[28] = tested on: MOLT-4 leukemia
[29] = tested on: NCI-H226 lung
[30] = tested on: NCI-H23 lung
[31] = tested on: NCI-H460 lung
[32] = tested on: NCI-H522 lung
[33] = tested on: NCI/ADR-RES ovarian
[34] = tested on: OVCAR-3 ovarian
[35] = tested on: OVCAR-4 ovarian
[36] = tested on: OVCAR-5 ovarian
[37] = tested on: OVCAR-8 ovarian
[38] = tested on: PC-3 prostate
[39] = tested on: RPMI-8226 leukemia
[40] = tested on: RXF 393 renal
[41] = tested on: SF-268 CNS
[42] = tested on: SF-295 CNS
[43] = tested on: SF-539 CNS
[44] = tested on: SK-MEL-2 melanoma
[45] = tested on: SK-MEL-28 melanoma
[46] = tested on: SK-MEL-5 melanoma
[47] = tested on: SK-OV-3 ovarian
[48] = tested on: SN12C renal
[49] = tested on: SNB-19 CNS
[50] = tested on: SNB-75 CNS
[51] = tested on: SR leukemia
[52] = tested on: SW-620 colon
[53] = tested on: T-47D breast
[54] = tested on: TK-10 renal
[55] = tested on: U251 CNS
[56] = tested on: UACC-257 melanoma
[57] = tested on: UACC-62 melanoma
[58] = tested on: UO-31 renal
[59] = tested on: BT-549 breast

Measured: TGI

CCOC(=O)OC1(c2ccccc2)CCN(C)CC1
not listed: [59]
> 100 µM: all other assays above

COc1ccc(-c2oc3cc(OC)ccc3c(=O)c2O)cc1
> 31.6 µM: [15] | [18] | [22] | [23] | [24] | [26] | [35] | [39] | [45]
> 100 µM: [1] | [2] | [7] | [9] | [11] | [12] | [17] | [21] | [25] | [27] | [31] | [38] | [42] | [46] | [49] | [54] | [55] | [56]
4.23 µM: [59]
8.33 µM: [5]
42.6 µM: [40]
5.53 µM: [16]

N=C(N)SCC(=O)O
not listed: [13] | [51]
> 100 µM: all other assays above

CC(=O)OC1COC(N2c3ccccc3[C@@H]3CCc4c([nH]c5ccccc45)[C@@H]32)C(OC(C)=O)C1OC(C)=O (mixture of isomers)
54 µM: [18]
62 µM: [2]
not listed: [1] | [4] | [13] | [19] | [21] | [24] | [29] | [33] | [37] | [40] | [43] | [53]
> 100 µM: all other assays above

C/C(=C\CO)CC[C@@H]1[C@@]2(C)CCCC(C)(C)[C@@H]2CC[C@@]1(C)O
53.6 µM: [22]
34.3 µM: [8]
34.7 µM: [19] | [50]
49.3 µM: [36]
43.2 µM: [45]
34.6 µM: [26]
27.6 µM: [34]
27.1 µM: [57]
33.8 µM: [48]
31.3 µM: [31] | [54]
43 µM: [20]
29.5 µM: [10]
51.2 µM: [17]
30.7 µM: [2]
72.1 µM: [5]
34.2 µM: [35]
36.5 µM: [39]
92.7 µM: [3]
51.3 µM: [53]
31.9 µM: [33]
33.7 µM: [12] | [42]
33.4 µM: [29]
56.4 µM: [16]
31 µM: [25] | [55]
42.9 µM: [49]
35 µM: [40]
40 µM: [30]
30.2 µM: [21]
43.5 µM: [11]
30 µM: [38]
30.8 µM: [24]
31.4 µM: [32] | [44]
32.4 µM: [15] | [41] | [43]
31.8 µM: [37] | [46]
57.1 µM: [47]
36.3 µM: [23]
32.7 µM: [7]
32.6 µM: [59]
39.8 µM: [1]
38 µM: [27] | [56]
69.2 µM: [28]
35.5 µM: [18]
45.7 µM: [13]
50.3 µM: [58]
50.5 µM: [52]
51.5 µM: [6] | [9]
> 100 µM: [4]

Cc1cccc2c(N)c3cccc(C(=O)NCC[N+](C)(C)[O-])c3nc12
41.5 µM: [26]
27.8 µM: [29]
36.7 µM: [43]
27.5 µM: [40]
24.5 µM: [10]
9.47 µM: [50]
10.2 µM: [31]
26.8 µM: [57]
41.8 µM: [59]
38.9 µM: [16]
28.2 µM: [35]
36.6 µM: [37]
42.7 µM: [27]
36.5 µM: [14]
87.4 µM: [9]
40.4 µM: [7]
60.3 µM: [17] | [56]
92.8 µM: [15]
27.6 µM: [36]
52.5 µM: [23]
75.1 µM: [25]
77.9 µM: [4]
60.4 µM: [38]
16.7 µM: [30]
55 µM: [22]
64.6 µM: [47]
45.2 µM: [45]
45.4 µM: [42]
not listed: [2] | [32] | [51]
> 100 µM: all other assays above

O=c1cccc2n1CC1CNCC2C1 (stereo unspecified)
not listed: [18] | [32] | [51] | [53]
> 100 µM: all other assays above
